Read-outs that look alike come from different tables or passages of the source.
Columns and labels:
[1] = biological target: T1, Recombinant human PKC-theta (His-tagged 362-706) (Homo sapiens, UniProt Q04759); assay: PKC-theta inhibition assay (HTRF KinEASE kit); assay type: biochemical; conditions: ATP 6.5 μM, STK substrate 525 nM
T1 construct: Recombinant human PKC-theta (His-tagged 362-706); His
How it was run: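 IC50 values were from 4-parameter logistic fits of percent inhibition, based on acceptor/donor HTRF ratios over 10 semi-log compound doses. Kinase reactions, started with substrate plus ATP, ran 30 min at 25 °C in buffer supplemented with 10 mM MgCl2, 1 mM DTT and 0.1% Tween 20; detection lasted 2 h.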

[2] = test system: IL-2 secretion by human effector memory T cells (TEM); assay: Effector memory T cells IL-2 release assay (CD3/CD28 stimulation, HTRF IL-2 detection); assay type: cell-based; conditions: 24 h; for IC50: Homo sapiens, T-cell
How it was run: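 IL-2 released into the supernatant was quantified by HTRF after 24 h at 37 °C in 5% CO2. The cells were stimulated primary human TEM from donor buffy coats, treated with a 10-point semi-log compound series (0.1% DMSO final, triplicates).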

[3] = biological target: T2, Recombinant human PKC-delta (His-tagged 345-676) (Homo sapiens, UniProt Q05655); assay: PKC-delta inhibition assay (HTRF KinEASE kit); assay type: biochemical; conditions: ratio, PKC-theta vs PKC-delta HTRF; for PKC-theta/PKC-delta selectivity (binned): binned A to G
T2 construct: PKC-delta (His-tagged 345-676); His
T2 sequence (Q05655 345-676): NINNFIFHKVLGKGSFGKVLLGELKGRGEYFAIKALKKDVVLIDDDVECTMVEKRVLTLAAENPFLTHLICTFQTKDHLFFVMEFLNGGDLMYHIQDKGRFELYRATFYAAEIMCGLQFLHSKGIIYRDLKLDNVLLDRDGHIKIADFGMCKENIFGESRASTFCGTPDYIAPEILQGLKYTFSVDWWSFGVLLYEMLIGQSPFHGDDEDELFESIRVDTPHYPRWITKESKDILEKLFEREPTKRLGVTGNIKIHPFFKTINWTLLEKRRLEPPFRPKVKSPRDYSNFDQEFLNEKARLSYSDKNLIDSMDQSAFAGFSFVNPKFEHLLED

[4] = binned A to H, read-out: PKC-theta HTRF pIC50 (binned) (converted)
[5] = read-out: PKC-theta HTRF pIC50 (converted)
[6] = binned A to G, read-out: PKC-theta IL2 pIC50 (binned) (converted)
[7] = read-out: PKC-theta IL2 pIC50 (converted)

T1 sequence (Q04759 362-706): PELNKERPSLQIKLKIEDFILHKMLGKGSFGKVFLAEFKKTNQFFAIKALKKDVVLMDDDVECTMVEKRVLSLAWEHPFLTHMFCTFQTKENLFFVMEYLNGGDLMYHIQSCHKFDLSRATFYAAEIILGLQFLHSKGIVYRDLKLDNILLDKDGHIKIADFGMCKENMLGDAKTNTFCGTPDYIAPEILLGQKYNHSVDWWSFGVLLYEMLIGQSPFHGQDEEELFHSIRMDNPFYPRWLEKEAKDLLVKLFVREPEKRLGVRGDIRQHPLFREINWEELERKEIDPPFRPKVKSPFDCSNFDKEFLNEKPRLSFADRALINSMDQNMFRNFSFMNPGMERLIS

Compound	IC50 [1, 4] [µM]	IC50 [1, 5] [µM]	IC50 [2, 6] [µM]	IC50 [2, 7] [µM]	PKC-theta/PKC-delta selectivity [3]	PKC-theta/PKC-delta selectivity (binned) [3]	PKC-theta IL2 pIC50 (binned) ([2]; binned A to G)	PKC-theta IL2 pIC50 [2]
C[C@@H]1CN(c2cc(C(F)(F)F)cc(-c3ccnc4c3C(C)(C)C(=O)N4)n2)[C@@H](C)CN1 [Example 117]	0.01 to 0.0316	0.0126	0.1 to 0.316	0.2	10	D (a ratio of between 10 and 20)	–	–
COC[C@@H]1CN(c2cc(C(F)(F)F)cc(-c3ccnc4c3C(C)(C)C(=O)N4)n2)CCN1 [Example 120]	0.01 to 0.0316	0.0251	0.316 to 1	0.501	15	D (a ratio of between 10 and 20)	–	–
C[C@H](O)[C@@H]1CN(c2cc(C(F)(F)F)cc(-c3ccnc4c3C(C)(C)C(=O)N4)n2)CCN1 [Example 121]	0.01 to 0.0316	0.0251	0.316 to 1	0.631	12	D (a ratio of between 10 and 20)	–	–
CC1(C)C(=O)Nc2nccc(-c3cc(C(F)(F)F)cc(N4CCNC(C(C)(C)O)C4)n3)c21 (stereo not drawn) [Example 124]	0.00316 to 0.01	0.00398	0.1 to 0.316	0.158	16	D (a ratio of between 10 and 20)	–	–
C[C@@]1(O)C(=O)Nc2nccc(-c3cc(C(F)(F)F)cc(N4CCNC(CC(F)(F)F)C4)n3)c21 (stereo partly drawn) [Example 125]	0.01 to 0.0316	0.0158	0.316 to 1	0.398	13	D (a ratio of between 10 and 20)	–	–
C[C@@H]1NCCN(c2cc(C(F)(F)F)cc(-c3ccnc4c3[C@](C)(O)C(=O)N4)n2)[C@@H]1C [Example 126]	0.001 to 0.00316	0.00126	0.01 to 0.0316	0.0251	12	D (a ratio of between 10 and 20)	–	–
C[C@H]1NCCN(c2cc(C(F)(F)F)cc(-c3ccnc4c3C(C)(C)C(=O)N4)n2)[C@H]1C [Example 127]	0.001 to 0.00316	0.00126	–	0.0251	15	D (a ratio of between 10 and 20)	C (a measured pIC50 of between 7.5 and 8.0)	–
CC[C@H]1CN(c2cc(Cl)cc(-c3ccnc4c3C(C)(OC)C(=O)N4)n2)CCN1 (stereo partly drawn) [Example 130]	0.00316 to 0.01	0.00794	0.1 to 0.316	0.158	8	E (a ratio of between 5 and 10)	–	–
CCC1(O)C(=O)Nc2nccc(-c3cc(C(F)(F)F)cc(N4CCNC[C@H]4C)n3)c21 (stereo partly drawn) [Example 131]	0.00316 to 0.01	0.00398	0.0316 to 0.1	0.0398	6	E (a ratio of between 5 and 10)	–	–
CC[C@H]1CN(c2ccc(Cl)c(-c3ccnc4c3C(O)(CC)C(=O)N4)n2)CCN1 (stereo partly drawn) [Example 132]	0.1 to 0.316	0.1	0.316 to 1	1	4	F (a ratio of between 1 and 5)	–	–
CC1(C)C(=O)Nc2nccc(-c3cc(C(F)(F)F)cc(N4C[C@H]5CC[C@@H](C4)N5)n3)c21 [Example 135]	0.01 to 0.0316	0.02	0.1 to 0.316	0.316	13	D (a ratio of between 10 and 20)	–	–
CC1(C)C(=O)Nc2nccc(-c3cc(C(F)(F)F)cc(N4CC5CCC4CN5)n3)c21 (stereo not drawn) [Example 137]	0.01 to 0.0316	0.0126	0.1 to 0.316	0.251	16	D (a ratio of between 10 and 20)	–	–
C[C@@H]1CNCCN1c1cc(Cl)cc(-c2ccnc3c2C(C)(C)C(=O)N3)n1 [Example 140]	0.001 to 0.00316	0.00158	0.01 to 0.0316	0.0126	6	E (a ratio of between 5 and 10)	–	–
C[C@H]1CN(c2cc(C(F)(F)F)cc(-c3ccnc4c3C(C)(C)C(=O)N4)n2)CCN1 [Example 141]	0.00316 to 0.01	0.00398	0.0316 to 0.1	0.0501	16	D (a ratio of between 10 and 20)	–	–
CC[C@H]1CN(c2cc(C(F)(F)F)cc(-c3ccnc4c3C(C)(C)C(=O)N4)n2)CCN1 [Example 142]	0.001 to 0.00316	0.002	0.0316 to 0.1	0.0398	17	D (a ratio of between 10 and 20)	–	–
CC[C@H]1CN(c2cc(Cl)cc(-c3ccnc4c3C(O)(CC)C(=O)N4)n2)CCN1 (stereo partly drawn) [Example 143]	0.00316 to 0.01	0.00398	0.0316 to 0.1	0.0316	8	E (a ratio of between 5 and 10)	–	–
CCC1(C)C(=O)Nc2nccc(-c3cc(C(F)(F)F)cc(N4CCNC[C@H]4C)n3)c21 (stereo partly drawn) [Example 144]	0.001 to 0.00316	0.00158	0.01 to 0.0316	0.0251	23	C (a ratio of between 20 and 30)	–	–
CC[C@H]1CN(c2cc(Cl)cc(-c3ccnc4c3C(C)(C)C(=O)N4)n2)CCN1 [Example 145]	0.000316 to 0.001	0.000794	0.01 to 0.0316	0.0158	25	C (a ratio of between 20 and 30)	–	–
CCC1(C)C(=O)Nc2nccc(-c3cc(Cl)cc(N4CCNC[C@H]4C)n3)c21 (stereo partly drawn) [Example 146]	0.001 to 0.00316	0.00251	0.01 to 0.0316	0.0251	4	F (a ratio of between 1 and 5)	–	–
CCC1(C)C(=O)Nc2nccc(-c3cc(Cl)cc(N4CCN[C@@H](C)C4)n3)c21 (stereo partly drawn) [Example 147]	0.001 to 0.00316	0.00251	0.0316 to 0.1	0.0316	10	D (a ratio of between 10 and 20)	–	–
CC[C@H]1CN(c2cccc(-c3ccnc4c3C(C)(CC)C(=O)N4)n2)CCN1 (stereo partly drawn) [Example 148]	0.01 to 0.0316	0.02	0.1 to 0.316	0.158	3	F (a ratio of between 1 and 5)	–	–
CC1(C)C(=O)Nc2nccc(-c3cc(C(F)(F)F)cc(N4CC5CC(C4)N5)n3)c21 [Example 150]	0.0316 to 0.1	0.0631	> 1	1.26	13	D (a ratio of between 10 and 20)	–	–
C[C@@H]1CNCCN1c1cc(Cl)cc(-c2c(F)cnc3c2C(C)(C)C(=O)N3)n1 [Example 155]	0.00316 to 0.01	0.00398	0.0316 to 0.1	0.0501	17	D (a ratio of between 10 and 20)	–	–
C[C@@H]1CNCCN1c1cc(C(F)(F)F)cc(-c2c(F)cnc3c2C(C)(C)C(=O)N3)n1 [Example 156]	0.01 to 0.0316	0.0126	0.1 to 0.316	0.126	12	D (a ratio of between 10 and 20)	–	–
CCC1(C)C(=O)Nc2ncc(F)c(-c3cc(C(F)(F)F)cc(N4CCNC[C@H]4C)n3)c21 (stereo partly drawn) [Example 157]	0.00316 to 0.01	0.00794	0.1 to 0.316	0.158	20	C (a ratio of between 20 and 30)	–	–
CC1(C)C(=O)Nc2nccc(-c3cc(Cl)cc(N4CCNCC4C(F)F)n3)c21 (stereo not drawn) [Example 159]	0.001 to 0.00316	0.002	0.1 to 0.316	0.1	9	E (a ratio of between 5 and 10)	–	–
CC1(C)C(=O)Nc2nccc(-c3cc(C(F)(F)F)cc(N4CCNCC4C(F)F)n3)c21 (stereo not drawn) [Example 160]	0.001 to 0.00316	0.00316	0.0316 to 0.1	0.1	9	E (a ratio of between 5 and 10)	–	–
CC1(C)C(=O)Nc2nccc(-c3cc(C(F)(F)F)cc(N4CCNC[C@H]4CO)n3)c21 [Example 161]	0.001 to 0.00316	0.00251	0.0316 to 0.1	0.0501	12	D (a ratio of between 10 and 20)	–	–
C[C@H]1NCCN(c2cc(C(F)(F)F)cc(-c3ccnc4c3C(C)(C)C(=O)N4)n2)[C@H]1C [Example 168]	0.000316 to 0.001	0.000501	–	–	14	D (a ratio of between 10 and 20)	B (a measured pIC50 of between 8.0 and 8.5)	8.1

— patent US20260035367A1 (Celgene Corporation, priority 2021, published 2026)
